Measurements taken from ChEMBL document CHEMBL4014278, “Discovery of uracil-bearing DAPYs derivatives as novel HIV-1 NNRTIs via crystallographic overlay-based molecular hybridization” (Eur J Med Chem, 2017).
≈ marks a conversion by molar mass, not a printed value. Where a name gives a salt, the structure may show the parent alone.

Legend:
[1] = test system: Human immunodeficiency virus 1; assay: Antiviral activity against HIV1 NL4-3; format: functional; details: Human immunodeficiency virus 1, NL4-3
[2] = test system: Human immunodeficiency virus 1; assay: Antiviral activity against HIV1 RES056 harboring K103N/Y181C double mutant infected in human MT4 cells assessed as protection against virus-induced cytopathic effect measured at 5 days post infection by MTT assay; format: functional, cell-based; details: Human immunodeficiency virus 1, RES056, MT4, 120 h
[3] = Selectivity index, ratio of CC50 for human MT4 cells to EC50 for wild-type HIV1 3B infected in human MT4 cells; format: toxicity, cell-based; details: read-out: Ratio CC50/EC50
[4] = test system: Human immunodeficiency virus 1; assay: Antiviral activity against wild-type HIV1 3B infected in human MT4 cells assessed as protection against virus-induced cytopathic effect measured at 5 days post infection by MTT assay; format: functional, cell-based; details: Human immunodeficiency virus 1, 3B, MT4, 120 h
[5] = test system: Human immunodeficiency virus 2; assay: Antiviral activity against HIV-2 ROD infected in human MT4 cells assessed as protection against virus-induced cytopathic effect measured at 5 days post infection by MTT assay; format: functional, cell-based; details: Human immunodeficiency virus 2, ISOLATE ROD, MT4, 120 h
[6] = Cytotoxicity against human MT4 cells after 5 days by MTT assay; format: cell-based
[7] = Solubility of the compound in phosphate buffer at pH 7.4 after 2 hrs by UV-HPLC method; format: physicochemical
[8] = Solubility of the compound in phosphate buffer at pH 2 after 2 hrs by UV-HPLC method; format: physicochemical
[9] = n-Octanol/water partition coefficient, log P of the compound after 2 hrs by HPLC method; format: physicochemical
[10] = test system: Human immunodeficiency virus 1; assay: Fold resistance, ratio of EC50 for HIV1 harboring E138K mutant infected in human MT4 cells to EC50 for wild-type HIV1 3B infected in human MT4 cells; format: functional
[11] = test system: Human immunodeficiency virus 1; assay: Fold resistance, ratio of EC50 for HIV1 harboring K103N mutant infected in human MT4 cells to EC50 for wild-type HIV1 3B infected in human MT4 cells; format: functional
[12] = test system: Human immunodeficiency virus 1; assay: Antiviral activity against HIV1 harboring K103N mutant infected in human MT4 cells assessed as protection against virus-induced cytopathic effect measured at 5 days post infection by MTT assay; format: functional, cell-based; details: Human immunodeficiency virus 1, MT4, 120 h
[13] = test system: Human immunodeficiency virus 1; assay: Antiviral activity against HIV1 harboring E138K mutant infected in human MT4 cells assessed as protection against virus-induced cytopathic effect measured at 5 days post infection by MTT assay; format: functional, cell-based; details: Human immunodeficiency virus 1, MT4, 120 h
[14] = test system: Human immunodeficiency virus 1; assay: Antiviral activity against HIV1 harboring L100I mutant infected in human MT4 cells assessed as protection against virus-induced cytopathic effect measured at 5 days post infection by MTT assay; format: functional, cell-based; details: Human immunodeficiency virus 1, MT4, 120 h
[15] = test system: Human immunodeficiency virus 1; assay: Antiviral activity against HIV1 harboring Y188L mutant infected in human MT4 cells assessed as protection against virus-induced cytopathic effect measured at 5 days post infection by MTT assay; format: functional, cell-based; details: Human immunodeficiency virus 1, MT4, 120 h
[16] = test system: Human immunodeficiency virus 1; assay: Antiviral activity against HIV1 harboring Y181C mutant infected in human MT4 cells assessed as protection against virus-induced cytopathic effect measured at 5 days post infection by MTT assay; format: functional, cell-based; details: Human immunodeficiency virus 1, MT4, 120 h
[17] = test system: Human immunodeficiency virus 1; assay: Fold resistance, ratio of EC50 for HIV1 harboring Y188L mutant infected in human MT4 cells to EC50 for wild-type HIV1 3B infected in human MT4 cells; format: functional
[18] = test system: Human immunodeficiency virus 1; assay: Fold resistance, ratio of EC50 for HIV1 harboring L100I mutant infected in human MT4 cells to EC50 for wild-type HIV1 3B infected in human MT4 cells; format: functional
[19] = test system: Human immunodeficiency virus 1; assay: Fold resistance, ratio of EC50 for HIV1 harboring Y181C mutant infected in human MT4 cells to EC50 for wild-type HIV1 3B infected in human MT4 cells; format: functional
[20] = test system: Human immunodeficiency virus 1; assay: Antiviral activity against HIV1 harboring F227L/V106A double mutant infected in human MT4 cells assessed as protection against virus-induced cytopathic effect measured at 5 days post infection by MTT assay; format: functional, cell-based; details: Human immunodeficiency virus 1, MT4, 120 h
[21] = Inhibition of wild-type HIV1 reverse transcriptase assessed as decrease in biotin-dUTP incorporation using poly(A)/oligo(dT)15 as template/primer after 1 hr by ELISA; set-up: species or system Human immunodeficiency virus 1
[22] = Solubility of the compound in water at pH 7.4; format: physicochemical
[23] = Lipophilicity, log P of the compound; format: physicochemical; details: octanol/water
[24] = Solubility of the compound in 0.1 N HCl at pH 2; format: physicochemical

Structure (SMILES)	EC50 [2]	selectivity ratio [3]	EC50 [4]	EC50 [5]	CC50 at 120 h [6]	also measured
Cc1cc(C#N)cc(C)c1Oc1nc(Nc2ccc(C#N)cc2)nc2[nH]ccc12	–	–	–	–	–	EC50 [1]: 0.00053 µM
Cc1cc(C)c(Oc2cc(Cl)nc(NCCn3ccc(=O)[nH]c3=O)n2)c(C)c1	> 44.1 µM	85	0.52 µM	> 44.1 µM	44.1 µM	–
Cc1cc(C)c(Nc2nc(NCCn3ccc(=O)[nH]c3=O)ncc2[N+](=O)[O-])c(C)c1	> 3.33 µM	≥ 40	0.083 µM	> 3.33 µM	≥ 3.33 µM	–
Cc1cc(C)cc(Oc2cc(NCCn3ccc(=O)[nH]c3=O)nc(Cl)n2)c1	–	< 1	> 99.5 µM	> 99.5 µM	99.5 µM	–
Cc1cc(C)c(Oc2ccnc(NCCn3ccc(=O)[nH]c3=O)n2)c(C)c1	> 272 µM	515	0.53 µM	> 272 µM	272 µM	–
Cc1cc(C#N)cc(C)c1Oc1ccnc(NCCn2ccc(=O)[nH]c2=O)n1	> 35.8 µM	5	6.66 µM	> 35.8 µM	35.8 µM	solubility at 2 h [7]: 62.9 µg/mL (≈ 166 µM); solubility at 2 h [8]: > 100 µg/mL; logP at 2 h [9]: -0.11
Cc1cc(/C=C/C#N)cc(C)c1Oc1cc(Cl)nc(NCCn2ccc(=O)[nH]c2=O)n1	> 285 µM	> 2270	0.12 µM	> 285 µM	> 285 µM	–
Cc1cc(C#N)cc(C)c1Oc1cc(Cl)nc(NCCn2ccc(=O)[nH]c2=O)n1	> 20.6 µM	3	7.73 µM	> 20.6 µM	20.6 µM	–
Cc1cc(C)c(Oc2cc(N)nc(NCCn3ccc(=O)[nH]c3=O)n2)c(C)c1	> 119 µM	44	2.7 µM	> 119 µM	119 µM	–
Cc1cc(C)c(Oc2cc(NCCn3ccc(=O)[nH]c3=O)nc(Cl)n2)c(C)c1	–	≤ 2	> 42.3 µM	> 76.4 µM	76.4 µM	–
Cc1cc(C#N)cc(C)c1Oc1nc(NCCn2ccc(=O)[nH]c2=O)ncc1Cl	> 11.7 µM	≥ 255	0.046 µM	> 11.7 µM	> 11.7 µM	–
Cc1cc(C#N)cc(C)c1Oc1nc(NCCn2ccc(=O)[nH]c2=O)nc(N)c1Br	> 265 µM	> 7680	0.034 µM	> 265 µM	> 265 µM	–
Cc1cc(C)cc(Oc2cc(N)nc(NCCn3ccc(=O)[nH]c3=O)n2)c1	–	< 1	> 45.8 µM	> 127 µM	127 µM	–
Cc1cc(C)cc(Oc2cc(Cl)nc(NCCn3ccc(=O)[nH]c3=O)n2)c1	–	> 1	> 56.5 µM	> 56.5 µM	> 56.5 µM	–
Cc1cc(C)c(Nc2nc(NCCn3ccc(=O)[nH]c3=O)ncc2N)c(C)c1	> 299 µM	> 20	14.9 µM	> 299 µM	> 199 µM	–
Cc1cc(/C=C/C#N)cc(C)c1Oc1nc(NCCn2ccc(=O)[nH]c2=O)ncc1Cl	23.3 µM	> 50500	0.0056 µM	> 285 µM	> 285 µM	Ratio EC50 [10]: 6; Ratio EC50 [11]: 15; EC50 [12]: 0.086 µM; EC50 [13]: 0.034 µM; EC50 [14]: 0.43 µM; EC50 [15]: 52 µM; EC50 [16]: 0.15 µM; Ratio EC50 [17]: 9277; Ratio EC50 [18]: 77; Ratio EC50 [19]: 27; solubility at 2 h [7]: < 0.1 µg/mL; EC50 [20]: ≥ 96.6 µM; IC50 [21]: 1.58 µM
Cc1cc(/C=C/C#N)cc(C)c1Oc1ccnc(NCCn2ccc(=O)[nH]c2=O)n1	> 309 µM	> 9100	0.034 µM	> 309 µM	> 309 µM	solubility at 2 h [7]: < 1 µg/mL
Cc1cc(C=CC#N)cc(C)c1Oc1cc(NCCn2ccc(=O)[nH]c2=O)nc(Cl)n1	–	5	5.81 µM	> 26.2 µM	26.2 µM	–
Cc1cc(C)c(Oc2nc(NCCn3ccc(=O)[nH]c3=O)ncc2Cl)c(C)c1	> 2.49 µM	317	0.0078 µM	> 2.49 µM	2.49 µM	–
Cc1cc(C#N)cc(C)c1Oc1cc(N)nc(NCCn2ccc(=O)[nH]c2=O)n1	> 204 µM	11	18.9 µM	> 204 µM	204 µM	–
Cc1cc(C)c(Oc2nc(Cl)ncc2NCCn2ccc(=O)[nH]c2=O)c(C)c1	> 2.89 µM	< 1	> 2.89 µM	> 2.89 µM	2.89 µM	–
Cc1cc(C#N)cc(C)c1Oc1cc(NCCn2ccc(=O)[nH]c2=O)nc(Cl)n1	> 27.9 µM	3	9.38 µM	> 27.9 µM	27.9 µM	–
Cc1cc(C)cc(Oc2nc(NCCn3ccc(=O)[nH]c3=O)ncc2Cl)c1	> 322 µM	> 367	0.88 µM	> 322 µM	> 322 µM	–
Cc1cc(/C=C/C#N)cc(C)c1Oc1cc(N)nc(NCCn2ccc(=O)[nH]c2=O)n1	> 298 µM	> 1740	0.17 µM	> 298 µM	> 298 µM	Ratio EC50 [10]: 5; Ratio EC50 [11]: 3; EC50 [12]: 0.53 µM; EC50 [13]: 0.83 µM; EC50 [14]: 21.9 µM; EC50 [15]: > 298 µM; EC50 [16]: 4.82 µM; Ratio EC50 [17]: >1753; Ratio EC50 [18]: 129; Ratio EC50 [19]: 28; solubility at 2 h [7]: 0.43 µg/mL (≈ 1.03 µM); solubility at 2 h [8]: 91.7 µg/mL (≈ 219 µM); EC50 [20]: > 298 µM; logP at 2 h [9]: 1.21
Cc1cc(C)cc(Oc2ccnc(NCCn3ccc(=O)[nH]c3=O)n2)c1	> 74.8 µM	2	48.8 µM	> 74.8 µM	74.8 µM	–
CC(C)Nc1cccnc1N1CCN(C(=O)c2cc3cc(NS(C)(=O)=O)ccc3[nH]2)CC1 [DELAVIRDINE MESYLATE]	0.032 µM	–	–	–	30.4 µM	EC50 [13]: 0.043 µM; EC50 [14]: 2.1 µM; EC50 [15]: 0.69 µM; EC50 [16]: 2.04 µM
O=C1Nc2ccc(Cl)cc2[C@@](C#CC2CC2)(C(F)(F)F)O1 [EFAVIRENZ]	–	–	–	–	> 6.34 µM	EC50 [14]: 0.1 µM; EC50 [15]: 0.34 µM; EC50 [16]: 0.0068 µM; EC50 [20]: 0.21 µM
Cc1cc(C#N)cc(C)c1Oc1nc(Nc2ccc(C#N)cc2)nc(N)c1Br [ETRAVIRINE]	0.0034 µM	–	–	–	–	solubility [22]: < 1 µg/mL; logP [23]: > 5; EC50 [14]: 0.0066 µM; solubility [24]: < 1 µg/mL; IC50 [21]: 1 µM
Cc1ccnc2c1NC(=O)c1cccnc1N2C1CC1 [NEVIRAPINE]	0.26 µM	–	–	–	> 15 µM	EC50 [14]: 0.83 µM; EC50 [15]: 9.61 µM; EC50 [16]: 6.22 µM; IC50 [21]: 1.39 µM
Cc1cn([C@H]2C[C@H](N=[N+]=[N-])[C@@H](CO)O2)c(=O)[nH]c1=O [ZIDOVUDINE]	0.0071 µM	> 1050	–	–	> 7.48 µM	EC50 [12]: 0.0083 µM; EC50 [13]: 0.013 µM; EC50 [15]: 0.011 µM; EC50 [16]: 0.0071 µM; EC50 [20]: 0.005 µM
